Assay results published in PubChem BioAssay (NCI).
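The concentration for 50% growth inhibition is given as GI50. TGI: total growth inhibition.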

Experiments:
Experiment in all cases: growth of human tumour cells (NCI), 384-well format
OVCAR-5 ovarian = tested on: OVCAR-5 ovarian
NCI-H522 lung = tested on: NCI-H522 lung
TK-10 renal = tested on: TK-10 renal
HL-60(TB) leukemia = tested on: HL-60(TB) leukemia
SR leukemia = tested on: SR leukemia
OVCAR-3 ovarian = tested on: OVCAR-3 ovarian
MDA-MB-435 melanoma = tested on: MDA-MB-435 melanoma
NCI-H23 lung = tested on: NCI-H23 lung
NCI-H460 NSCLC = tested on: NCI-H460 NSCLC
SNB-19 CNS = tested on: SNB-19 CNS
MCF7 breast = tested on: MCF7 breast
A498 renal = tested on: A498 renal
RXF 393 renal = tested on: RXF 393 renal
EKVX NSCLC = tested on: EKVX NSCLC
HOP-62 NSCLC = tested on: HOP-62 NSCLC
NCI-H226 lung = tested on: NCI-H226 lung
K-562 leukemia = tested on: K-562 leukemia
BT-549 breast = tested on: BT-549 breast
SW-620 colon = tested on: SW-620 colon
HCC-2998 colon = tested on: HCC-2998 colon
SK-OV-3 ovarian = tested on: SK-OV-3 ovarian
CCRF-CEM leukemia = tested on: CCRF-CEM leukemia
UACC-257 melanoma = tested on: UACC-257 melanoma
IGROV1 ovarian = tested on: IGROV1 ovarian
SF-539 CNS = tested on: SF-539 CNS
RPMI-8226 leukemia = tested on: RPMI-8226 leukemia
T-47D breast = tested on: T-47D breast
MDA-MB-231 breast = tested on: MDA-MB-231 breast
CAKI-1 renal = tested on: CAKI-1 renal
HCT-15 colon = tested on: HCT-15 colon
MALME-3M melanoma = tested on: MALME-3M melanoma
OVCAR-4 ovarian = tested on: OVCAR-4 ovarian
SK-MEL-5 melanoma = tested on: SK-MEL-5 melanoma
SN12C renal = tested on: SN12C renal
LOX IMVI melanoma = tested on: LOX IMVI melanoma
SK-MEL-28 melanoma = tested on: SK-MEL-28 melanoma
HS 578T breast = tested on: HS 578T breast
NCI-H322M lung = tested on: NCI-H322M lung
SK-MEL-2 melanoma = tested on: SK-MEL-2 melanoma
U251 glioblastoma = tested on: U251 glioblastoma
DU-145 prostate = tested on: DU-145 prostate
UACC-62 melanoma = tested on: UACC-62 melanoma
PC-3 prostate = tested on: PC-3 prostate
786-0 renal = tested on: 786-0 renal
A549 NSCLC = tested on: A549 NSCLC
M14 melanoma = tested on: M14 melanoma
SNB-75 CNS = tested on: SNB-75 CNS
ACHN renal = tested on: ACHN renal
HT29 colon = tested on: HT29 colon
HCT-116 colon = tested on: HCT-116 colon
UO-31 renal = tested on: UO-31 renal
KM12 colon = tested on: KM12 colon
MOLT-4 leukemia = tested on: MOLT-4 leukemia
HOP-92 NSCLC = tested on: HOP-92 NSCLC
NCI/ADR-RES ovarian = tested on: NCI/ADR-RES ovarian
SF-268 CNS = tested on: SF-268 CNS
SF-295 CNS = tested on: SF-295 CNS
MDA-MB-468 breast = tested on: MDA-MB-468 breast

CC(C)C[C@H](NC(=O)CNC(=O)c1cc(Cl)ccc1Cl)B(O)O
GI50 (OVCAR-5 ovarian): 66.6 nM
TGI (OVCAR-5 ovarian): 277 nM
GI50 (NCI-H522 lung): 16.5 nM
TGI (NCI-H522 lung): 30.9 nM
GI50 (TK-10 renal): 20.8 nM
TGI (TK-10 renal): 54 nM
GI50 (HL-60(TB) leukemia): 10.9 nM
TGI (HL-60(TB) leukemia): 23 nM
GI50 (SR leukemia): 11.1 nM
TGI (SR leukemia): 23.4 nM
GI50 (OVCAR-3 ovarian): 14.9 nM
TGI (OVCAR-3 ovarian): 31.4 nM
GI50 (MDA-MB-435 melanoma): 16 nM
TGI (MDA-MB-435 melanoma): 30.2 nM
GI50 (NCI-H23 lung): 22.7 nM
TGI (NCI-H23 lung): 65.5 nM
GI50 (NCI-H460 NSCLC): 61.6 nM
TGI (NCI-H460 NSCLC): 263 nM
GI50 (SNB-19 CNS): 84.2 nM
TGI (SNB-19 CNS): 421 nM
GI50 (MCF7 breast): 34.7 nM
TGI (MCF7 breast): 2660 nM
GI50 (A498 renal): 71.4 nM
TGI (A498 renal): 1310 nM
GI50 (RXF 393 renal): 18 nM
TGI (RXF 393 renal): 33 nM
GI50 (EKVX NSCLC): 83 nM
TGI (EKVX NSCLC): 396 nM
GI50 (HOP-62 NSCLC): 54.7 nM
TGI (HOP-62 NSCLC): 268 nM
GI50 (NCI-H226 lung): 11.1 nM
TGI (NCI-H226 lung): 23.6 nM
GI50 (K-562 leukemia): 33.8 nM
TGI (K-562 leukemia): 126 nM
GI50 (BT-549 breast): 20.6 nM
TGI (BT-549 breast): 36.3 nM
GI50 (SW-620 colon): 17.7 nM
TGI (SW-620 colon): 34 nM
GI50 (HCC-2998 colon): 30.6 nM
TGI (HCC-2998 colon): 130 nM
GI50 (SK-OV-3 ovarian): 184 nM
TGI (SK-OV-3 ovarian): 1520 nM
GI50 (CCRF-CEM leukemia): < 10 nM
GI50 (UACC-257 melanoma): 20 nM
TGI (UACC-257 melanoma): 36.7 nM
GI50 (IGROV1 ovarian): 80.2 nM
TGI (IGROV1 ovarian): 590 nM
GI50 (SF-539 CNS): 20.7 nM
TGI (SF-539 CNS): 35.2 nM
GI50 (RPMI-8226 leukemia): < 10 nM
GI50 (T-47D breast): 32.9 nM
TGI (T-47D breast): 62.8 nM
GI50 (MDA-MB-231 breast): 29.3 nM
TGI (MDA-MB-231 breast): 66.1 nM
GI50 (CAKI-1 renal): 31.2 nM
TGI (CAKI-1 renal): 155 nM
GI50 (HCT-15 colon): 29.2 nM
TGI (HCT-15 colon): 115 nM
GI50 (MALME-3M melanoma): 16.9 nM
TGI (MALME-3M melanoma): 35 nM
GI50 (OVCAR-4 ovarian): 82.1 nM
TGI (OVCAR-4 ovarian): 219 nM
GI50 (SK-MEL-5 melanoma): 19.7 nM
TGI (SK-MEL-5 melanoma): 41.7 nM
GI50 (SN12C renal): 62.2 nM
TGI (SN12C renal): 243 nM
GI50 (LOX IMVI melanoma): 40.6 nM
TGI (LOX IMVI melanoma): 136 nM
GI50 (SK-MEL-28 melanoma): 16.6 nM
TGI (SK-MEL-28 melanoma): 32 nM
GI50 (HS 578T breast): 20.9 nM
TGI (HS 578T breast): 39.4 nM
GI50 (NCI-H322M lung): 572 nM
TGI (NCI-H322M lung): 6500 nM
GI50 (SK-MEL-2 melanoma): 33.6 nM
TGI (SK-MEL-2 melanoma): 51.3 nM
GI50 (U251 glioblastoma): 67.6 nM
TGI (U251 glioblastoma): 1100 nM
GI50 (DU-145 prostate): 46.7 nM
TGI (DU-145 prostate): 457 nM
GI50 (UACC-62 melanoma): 27.5 nM
TGI (UACC-62 melanoma): 81.1 nM
GI50 (PC-3 prostate): 90.8 nM
TGI (PC-3 prostate): 298 nM
GI50 ([…]-0 renal): 37.7 nM
TGI (786-0 renal): 170 nM
GI50 (A549 NSCLC): 130 nM
TGI (A549 NSCLC): 1680 nM
GI50 (M14 melanoma): 17.1 nM
TGI (M14 melanoma): 32.4 nM
GI50 (SNB-75 CNS): 111 nM
TGI (SNB-75 CNS): 299 nM
GI50 (ACHN renal): 20.8 nM
TGI (ACHN renal): 71.2 nM
GI50 (HT29 colon): 19.8 nM
TGI (HT29 colon): 45.2 nM
GI50 (HCT-116 colon): 17.5 nM
TGI (HCT-116 colon): 34 nM
GI50 (UO-31 renal): 26.3 nM
TGI (UO-31 renal): 66.1 nM
GI50 (KM12 colon): 50.7 nM
TGI (KM12 colon): 165 nM
GI50 (MOLT-4 leukemia): < 10 nM
TGI (MOLT-4 leukemia): 11.4 nM
GI50 (HOP-92 NSCLC): 27.5 nM
TGI (HOP-92 NSCLC): 81.7 nM
GI50 (NCI/ADR-RES ovarian): 235 nM
TGI (NCI/ADR-RES ovarian): 781 nM
GI50 (SF-268 CNS): 26 nM
TGI (SF-268 CNS): 60.6 nM
GI50 (SF-295 CNS): 55.5 nM
TGI (SF-295 CNS): 236 nM
GI50 (MDA-MB-468 breast): 18.9 nM
TGI (MDA-MB-468 breast): 38.7 nM
